Reference: patent publication US10988465B2, “CXCR4 inhibitors and uses thereof” (X4 Pharmaceuticals, Inc., priority 2016, dated 2021)
Read-outs that look alike come from different tables or passages of the source.

Test: 7-day mouse toxicology study: toxicokinetics (plasma, brain, CSF), 30 mg/kg/day PO
Assay type: in vivo, male C57BL/6 mice
Settings: for Cmax / Tmax / AUC(0-t) / AUC(0-inf) / half-life: male, C57BL/6, mouse, po
Method: The PO dosing solutions were prepared in 50 mM citrate buffer (pH 4.0) at 3 mg/mL. The blood collection was performed as follows: the animal was anesthetized under isoflurane. Approximately 500 μL blood/time point was collected into K2EDTA tube via cardiac puncture for terminal bleeding. ˜200 μL blood samples were put on ice and centrifuged to obtain plasma sample (2000 g, 5 min under 4° C.) within 15 minutes of collection. ˜300 blood samples were used for hematology assay. The brain collection was performed as follow: a mid-line incision was made in the animal's scalp and skin retracted. The skull overlying the brain was removed. The whole brain was collected, rinsed with cold saline, dried on filtrate paper, weighted, and snap frozen by placing into dry ice. The brain sample was homogenized for 2 min with 3 volumes of PBS (pH 7.4) by Mini-bead-beater before sample extraction.
An aliquot of 10 μL sample was added to 200 μL MeCN containing 10 ng/mL IS (Glipizide). The mixture was vortexed for 10 min and centrifuged at 6,000 rpm for 10 min. An aliquot of 1 μL constitution was injected for LC-MS/MS analysis.
An aliquot of 3 μL sample was added to 70 μL MeCN containing 10 ng/mL IS (Glipizide). The mixture was vortexed for 2 min and centrifuged at 14,000 rpm for 5 min. An aliquot of 1 μL constitution was injected for LC-MS/MS analysis.
The sample was homogenized with 3 volumes (v/w) of PBS. An aliquot of 10 μL sample was added to 200 μL MeCN containing 10 ng/mL IS (Glipizide). The mixture was vortexed for 10 min and centrifuged at 6,000 rpm for 10 min. An aliquot of 1 μL constitution was injected for LC-MS/MS analysis.
The sample analysis was performed on LCMSMS-28 (Triple Quad 6500+) under the following conditions: positive ion, ESI, MRM detection using glipizide as internal standard. HPLC conditions: mobile phase A: H2O/0.025% FA with 1 mM NH4OAc, mobile phase B: MeOH/0.025% FA with 1 mM NH4OAc on Waters X-Bridge BEH C18 (2.1×50 mm, 2.5 μm) column at 60° C.

[1] = CSF, 30 mg/kg, Day 1, CSF, 30 mg/kg PO
[2] = CSF, 30 mg/kg, Day 7, CSF, 30 mg/kg PO
[3] = brain, 30 mg/kg, Day 1, Brain, 30 mg/kg PO
[4] = brain, 30 mg/kg, Day 7, Brain, 30 mg/kg PO
[5] = plasma, 30 mg/kg, Day 1, Plasma, 30 mg/kg PO
[6] = plasma, 30 mg/kg, Day 7, Plasma, 30 mg/kg PO

Cc1cccnc1[C@@H]1CCC[C@H](c2nc3cccc(N4CCN(C)CC4)c3[nH]2)N1C (racemic) [I-3, 2-((2R,6S)-1-methyl-6-(3-methylpyridin-2-yl)piperidin-2-yl)-7-(4-methylpiperazin-1-yl)-1H-benzo[d]imidazole]
AUCCSF/AUCbrain (Day 1, 30 mg/kg PO): 3.55%
AUCCSF/AUCbrain (Day 7, 30 mg/kg PO): 0.325%
Cmax [1]: 11.3 ng/mL
Tmax [1]: 8 h
AUC(0-t) (CSF, 30 mg/kg, Day 1, CSF, 30 mg/kg PO, read-out: AUClast): 151 ng·h/mL
Cmax [2]: 6.42 ng/mL
Tmax [2]: 4 h
AUC(0-t) (CSF, 30 mg/kg, Day 7, CSF, 30 mg/kg PO, read-out: AUClast): 35.5 ng·h/mL
AUC(0-inf) [3]: 8880 ng·h/mL
Cmax [3]: 219 ng/mL
Tmax [3]: 4 h
AUC(0-t) (brain, 30 mg/kg, Day 1, Brain, 30 mg/kg PO, read-out: AUClast): 4260 ng·h/mL
half-life (brain, 30 mg/kg, Day 1, Brain, 30 mg/kg PO, read-out: Terminal t1/2 (converted)): 25 h
AUC(0-inf) [4]: 29500 ng·h/mL
Cmax [4]: 615 ng/mL
Tmax [4]: 1 h
AUC(0-t) (brain, 30 mg/kg, Day 7, Brain, 30 mg/kg PO, read-out: AUClast): 10900 ng·h/mL
half-life (brain, 30 mg/kg, Day 7, Brain, 30 mg/kg PO, read-out: Terminal t1/2 (converted)): 34.4 h
AUC(0-t) (brain, 30 mg/kg, brain, D 1-30 mg/kg, PO, read-out: AUClast (b)): 4260 ng·h/mL
AUC(0-t) (brain, 30 mg/kg/day, brain, D 7-30 mg/kg, PO, read-out: AUClast (b)): 10900 ng·h/mL
half-life (plasma, 30 mg/kg, 7 days Mouse TOX, D 1-30 mg/kg, PO, read-out: t½ (converted)): 2.62 h
AUC(0-inf) [5]: 2370 ng·h/mL
Cmax [5]: 968 ng/mL
Tmax [5]: 0.5 h
AUC(0-t) (plasma, 30 mg/kg, Day 1, Plasma, 30 mg/kg PO, read-out: AUClast): 2370 ng·h/mL
half-life (plasma, 30 mg/kg, Day 1, Plasma, 30 mg/kg PO, read-out: Terminal t1/2 (converted)): 2.62 h
AUC(0-inf) [6]: 3570 ng·h/mL
Cmax [6]: 1210 ng/mL
Tmax [6]: 0.5 h
AUC(0-t) (plasma, 30 mg/kg, Day 7, Plasma, 30 mg/kg PO, read-out: AUClast): 3560 ng·h/mL
half-life (plasma, 30 mg/kg, Day 7, Plasma, 30 mg/kg PO, read-out: Terminal t1/2 (converted)): 3.13 h
AUC(0-t) (plasma, 30 mg/kg, plasma, D 1-30 mg/kg, PO, read-out: AUClast (p)): 2370 ng·h/mL
half-life (plasma, 30 mg/kg/day, 7 days Mouse TOX, D 7-30 mg/kg, PO, read-out: t½ (converted)): 3.13 h
AUC(0-t) (plasma, 30 mg/kg/day, plasma, D 7-30 mg/kg, PO, read-out: AUClast (p)): 3560 ng·h/mL
